From US12581252B2, “Substituted pyrrolo[3,4-b]pyridines as PI3K-α inhibitors” (Relay Therapeutics, Inc., priority 2020, dated 2026)

Tests used:
H1047R PIK3CA enzyme = H1047R PIK3CA enzyme (Homo sapiens, UniProt P42336, H1047R); experiment: ADP-Glo Biochemical PIK3CA Kinase Assay
cells = settings: Homo sapiens, MCF-10A, read-out: MCF10A IC50

Sequence of H1047R PIK3CA enzyme (P42336 whole entry H1047R): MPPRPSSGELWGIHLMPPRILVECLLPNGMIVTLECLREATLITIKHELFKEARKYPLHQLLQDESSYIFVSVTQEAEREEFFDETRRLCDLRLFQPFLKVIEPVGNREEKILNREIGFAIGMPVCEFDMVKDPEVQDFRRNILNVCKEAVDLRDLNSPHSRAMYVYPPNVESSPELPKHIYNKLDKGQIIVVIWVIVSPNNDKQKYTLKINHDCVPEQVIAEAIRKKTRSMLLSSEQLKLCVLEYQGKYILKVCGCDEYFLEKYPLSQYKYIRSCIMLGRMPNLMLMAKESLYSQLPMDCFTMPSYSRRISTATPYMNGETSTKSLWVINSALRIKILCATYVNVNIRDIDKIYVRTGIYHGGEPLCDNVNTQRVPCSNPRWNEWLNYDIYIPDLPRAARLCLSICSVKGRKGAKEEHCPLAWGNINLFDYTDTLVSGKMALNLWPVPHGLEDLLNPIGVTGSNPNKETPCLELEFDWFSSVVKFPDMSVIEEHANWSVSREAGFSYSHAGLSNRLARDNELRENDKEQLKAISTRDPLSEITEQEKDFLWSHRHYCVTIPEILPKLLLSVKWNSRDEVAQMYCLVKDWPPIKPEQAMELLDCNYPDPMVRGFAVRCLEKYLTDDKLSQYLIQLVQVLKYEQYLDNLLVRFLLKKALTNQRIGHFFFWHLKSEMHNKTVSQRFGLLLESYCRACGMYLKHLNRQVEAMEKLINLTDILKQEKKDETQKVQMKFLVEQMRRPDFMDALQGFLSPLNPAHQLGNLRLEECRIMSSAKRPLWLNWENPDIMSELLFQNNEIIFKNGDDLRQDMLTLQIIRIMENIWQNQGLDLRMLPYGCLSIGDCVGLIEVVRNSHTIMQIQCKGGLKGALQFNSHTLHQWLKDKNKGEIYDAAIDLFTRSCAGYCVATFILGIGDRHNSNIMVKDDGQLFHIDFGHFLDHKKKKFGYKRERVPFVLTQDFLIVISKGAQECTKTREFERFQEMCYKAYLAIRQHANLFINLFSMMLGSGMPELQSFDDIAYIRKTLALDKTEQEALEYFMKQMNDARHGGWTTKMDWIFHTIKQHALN
Sequence of H1047R PIK3CA enzyme (P27986 whole entry partner): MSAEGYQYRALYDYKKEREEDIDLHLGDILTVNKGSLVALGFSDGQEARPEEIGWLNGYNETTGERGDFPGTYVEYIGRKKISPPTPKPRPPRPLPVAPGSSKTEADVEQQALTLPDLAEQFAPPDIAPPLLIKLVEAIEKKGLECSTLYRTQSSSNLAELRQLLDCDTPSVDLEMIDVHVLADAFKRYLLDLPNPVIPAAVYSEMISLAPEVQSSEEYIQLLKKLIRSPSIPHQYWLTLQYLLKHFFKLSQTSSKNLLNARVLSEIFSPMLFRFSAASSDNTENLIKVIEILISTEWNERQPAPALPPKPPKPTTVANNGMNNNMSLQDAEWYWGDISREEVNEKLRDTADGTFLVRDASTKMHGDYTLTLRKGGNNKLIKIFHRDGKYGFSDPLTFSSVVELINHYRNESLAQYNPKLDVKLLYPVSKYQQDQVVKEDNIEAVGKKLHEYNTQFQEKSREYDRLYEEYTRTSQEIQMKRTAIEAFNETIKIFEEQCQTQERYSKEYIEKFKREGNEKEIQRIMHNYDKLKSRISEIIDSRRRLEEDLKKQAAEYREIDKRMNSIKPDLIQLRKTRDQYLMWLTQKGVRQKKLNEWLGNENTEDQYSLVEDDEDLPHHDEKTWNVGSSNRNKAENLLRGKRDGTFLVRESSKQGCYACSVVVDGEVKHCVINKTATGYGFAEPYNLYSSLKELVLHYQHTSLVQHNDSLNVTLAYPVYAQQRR

`O=C1NC(c2cc(F)ccc2Cl)c2c(NC(=O)C34CC5CC(C3)CC(C(F)(F)F)(C5)C4)cccc21` (stereo not drawn) [Compound I-1073] gave an IC50 (H1047R PIK3CA enzyme) of at most 100 nM and an IC50 (cells) of under 1000 nM.

`O=C(Nc1cc(-n2cccn2)cc2c1C(c1cc(F)ccc1Cl)NC2=O)c1cc(F)cc(C(F)(F)F)c1` (stereo not drawn) [Compound I-960] gave an IC50 (H1047R PIK3CA enzyme) of at most 100 nM and an IC50 (cells) of under 1000 nM.

Compound `O=C(Nc1cc(-c2cnn(-c3ncccn3)c2)cc2c1C(c1cc(F)ccc1Cl)NC2=O)c1cc(F)cc(C(F)(F)F)c1` (stereo not drawn) [Compound I-1418] has an IC50 (H1047R PIK3CA enzyme) of at most 100 nM and an IC50 (cells) of under 1000 nM.

In the case of `Cn1cnc(Nc2cc(NC(=O)c3cc(F)cc(C(F)(F)F)c3)c3c(c2)C(=O)NC3c2cc(F)ccc2Cl)n1` (stereo not drawn) [Compound I-976], the IC50 (H1047R PIK3CA enzyme) is reported as at most 100 nM and the IC50 (cells) is reported as under 1000 nM.

In the case of `Cc1ccccc1C1NC(=O)c2cccc(NC(=O)N3CCc4ccccc43)c21` (stereo not drawn) [Compound I-43, N-[3-(2-methylphenyl)-1-oxo-2,3-dihydro-1H-isoindol-4-yl]-2,3-dihydro-1H-indole-1-carboxamide], the IC50 (H1047R PIK3CA enzyme) is reported as at most 100 nM and the IC50 (cells) is reported as 1000 to 5000 nM.

In the case of `O=C1N[C@H](c2cc(F)ccc2Cl)c2c(NC(=O)N3C[C@](O)(C(F)(F)F)c4cc(F)ccc43)ccc(Cl)c21` (single isomer, unassigned) [Compound I-2618], the IC50 (H1047R PIK3CA enzyme) is reported as at most 100 nM and the IC50 (cells) is reported as under 1000 nM.

In the case of `O=C1N[C@H](c2cc(F)ccc2Cl)c2c(NC(=O)N3C[C@@](O)(C(F)(F)F)c4cc(F)ccc43)ccnc21` (single isomer, unassigned) [Compound I-2698], the IC50 (H1047R PIK3CA enzyme) is reported as at most 100 nM and the IC50 (cells) is reported as 1000 to 5000 nM.

For `O=C(Nc1cc(-c2ccnn2CC2CC2)cc2c1C(c1cc(F)ccc1Cl)NC2=O)c1cc(F)cc(C(F)(F)F)c1` (stereo not drawn) [Compound I-1038], the IC50 (H1047R PIK3CA enzyme) was at most 100 nM and the IC50 (cells) was under 1000 nM.

`O=C1N[C@@H](c2cc(F)ccc2Cl)c2c(NC(=O)N3C[C@](O)(C(F)(F)F)c4cc(F)ccc43)cc(F)cc21` (single isomer, unassigned) [Compound I-2630] showed an IC50 (H1047R PIK3CA enzyme) of 1000 to 10000 nM and an IC50 (cells) of under 1000 nM.

With `COCc1cc(NC(=O)c2cc(F)cc(C(F)(F)F)c2)c2c(c1)C(=O)N[C@H]2c1cc(F)ccc1Cl` [Compound I-691] the IC50 (H1047R PIK3CA enzyme) was at most 100 nM and the IC50 (cells) was under 1000 nM.

In the case of `O=C(Nc1cc(-c2cn3ncnc3cn2)cc2c1C(c1cc(F)ccc1C(F)F)NC2=O)c1cc(F)cc(C(F)(F)F)c1` (stereo not drawn) [Compound I-2185], the IC50 (H1047R PIK3CA enzyme) is reported as at most 100 nM and the IC50 (cells) is reported as under 1000 nM.

In the case of `Cc1ccccc1C1NC(=O)c2cc(CNC(=O)OC(C)(C)C)cc(NC(=O)c3csc4ccccc34)c21` (stereo not drawn) [Compound I-87], the IC50 (H1047R PIK3CA enzyme) is reported as at most 100 nM and the IC50 (cells) is reported as 1000 to 5000 nM.

`O=C1N[C@@H](c2cc(F)ccc2Cl)c2c(NC(=O)N3C[C@@H](O)c4cc(F)ccc43)cc(-c3cnn(C(F)F)c3)cc21` (single isomer, unassigned) [Compound I-2477] showed an IC50 (H1047R PIK3CA enzyme) of at most 100 nM and an IC50 (cells) of under 1000 nM.

`O=C1N[C@H](c2cc(F)ccc2Cl)c2c(NC(=O)N3C[C@@](O)(C(F)(F)F)c4cc(F)ccc43)cc(-n3nccn3)cc21` (single isomer, unassigned) [Compound I-2569] showed an IC50 (H1047R PIK3CA enzyme) of at most 100 nM and an IC50 (cells) of under 1000 nM.

With `Cn1nccc1Nc1cc(NC(=O)c2cc(F)cc(C(F)(F)F)c2)c2c(c1)C(=O)NC2c1cc(F)ccc1Cl` (stereo not drawn) [Compound I-922] the IC50 (H1047R PIK3CA enzyme) was at most 100 nM and the IC50 (cells) was under 1000 nM.

Compound `C[C@@]1(C(=O)Nc2cc(Br)cc3c2[C@H](c2cc(F)ccc2Cl)NC3=O)CCC[C@H](C(F)(F)F)C1` (single isomer, unassigned) [Compound I-2262] has an IC50 (H1047R PIK3CA enzyme) of 100 to 500 nM and an IC50 (cells) of 1000 to 5000 nM.

Compound `Cc1ccccc1[C@@H]1NC(=O)c2cc(N)cc(NC(=O)c3nsc4ccccc34)c21` [Compound I-92] has an IC50 (H1047R PIK3CA enzyme) of at most 100 nM and an IC50 (cells) of under 1000 nM.

In the case of `N#CCCc1cc(NC(=O)c2cc(F)cc(C(F)(F)F)c2)c2c(c1)C(=O)N[C@H]2c1cc(F)ccc1Cl` (stereo in doubt) [Compound I-2169], the IC50 (H1047R PIK3CA enzyme) is reported as at most 100 nM and the IC50 (cells) is reported as under 1000 nM.

`N#Cc1cc(NC(=O)N2C[C@@](O)(C(F)(F)F)c3ccccc32)c2c(c1)C(=O)N[C@@H]2c1cc(F)ccc1Cl` (single isomer, unassigned) [Compound I-2564] showed an IC50 (H1047R PIK3CA enzyme) of at most 100 nM and an IC50 (cells) of under 1000 nM.

With `N#CCc1cc(NC(=O)N2CC(O)(C(F)(F)F)c3ccccc32)c2c(c1)C(=O)NC2c1cc(F)ccc1Cl` (mixture of isomers) [Compound I-2585] the IC50 (H1047R PIK3CA enzyme) was at most 100 nM and the IC50 (cells) was under 1000 nM.

`Cc1cc(-c2cc(NC(=O)c3cc(F)cc(C(F)(F)F)c3)c3c(c2)C(=O)NC3c2cc(F)ccc2Cl)cc2cnn(C)c12` (stereo not drawn) [Compound I-927] showed an IC50 (H1047R PIK3CA enzyme) of 100 to 500 nM and an IC50 (cells) of 5000 to 10000 nM.

In the case of `N#CC1(COc2cc(NC(=O)N3C[C@@H](O)c4cc(F)ccc43)c3c(c2)C(=O)N[C@@H]3c2cc(F)ccc2Cl)CC1` (single isomer, unassigned) [Compound I-2552], the IC50 (H1047R PIK3CA enzyme) is reported as at most 100 nM and the IC50 (cells) is reported as 1000 to 5000 nM.

`Cc1nccn1-c1cc(NC(=O)N2C[C@@](O)(C(F)(F)F)c3cc(F)ccc32)c2c(c1)C(=O)N[C@@H]2c1cc(F)ccc1Cl` (single isomer, unassigned) [Compound I-2661] gave an IC50 (H1047R PIK3CA enzyme) of at most 100 nM and an IC50 (cells) of under 1000 nM.

Compound `CNC(=O)c1cc(NC(=O)c2csc3ccccc23)c2c(c1)C(=O)N[C@H]2c1ccccc1C` [Compound I-76, (S)-7-(Benzo[b]thiophene-3-carboxamido)-N-methyl-3-oxo-1-(o-tolyl)isoindoline-5-carboxamide] has an IC50 (H1047R PIK3CA enzyme) of at most 100 nM and an IC50 (cells) of under 1000 nM.

`Cc1nc2ccc(-c3cc(NC(=O)c4cc(F)cc(C(F)(F)F)c4)c4c(c3)C(=O)NC4c3cc(F)ccc3Cl)cc2o1` (stereo not drawn) [Compound I-984] gave an IC50 (H1047R PIK3CA enzyme) of at most 100 nM and an IC50 (cells) of under 1000 nM.

With `O=C1NC(c2cc(F)ccc2Cl)c2c(NC(=O)N3CC(O)(C(F)F)c4cc(F)ccc43)cccc21` (mixture of isomers) [Compound I-2488] the IC50 (H1047R PIK3CA enzyme) was at most 100 nM and the IC50 (cells) was 1000 to 5000 nM.

`O=C(Nc1cc(C2CN(c3ccncn3)C2)cc2c1C(c1cc(F)ccc1Cl)NC2=O)c1cc(F)cc(C(F)(F)F)c1` (stereo not drawn) [Compound I-1104] showed an IC50 (H1047R PIK3CA enzyme) of at most 100 nM and an IC50 (cells) of under 1000 nM.

With `O=C1N[C@H](c2cc(F)ccc2Cl)c2c(NC(=O)N3C[C@@](O)(C(F)(F)F)c4cc(F)ccc43)cc(N3CCOC3=O)cc21` (single isomer, unassigned) [Compound I-2673] the IC50 (H1047R PIK3CA enzyme) was at most 100 nM and the IC50 (cells) was under 1000 nM.

`O=C1N[C@@H](c2cc(F)ccc2Cl)c2c(NC(=O)N3C[C@@](O)(C(F)F)c4ccccc43)cccc21` (single isomer, unassigned) [Compound I-2487] showed an IC50 (H1047R PIK3CA enzyme) of at most 100 nM and an IC50 (cells) of under 1000 nM.

`COc1nc(-c2cc(NC(=O)c3cc(F)cc(C(F)(F)F)c3)c3c(c2)C(=O)NC3c2cc(F)ccc2Cl)cs1` (stereo not drawn) [Compound I-1066] gave an IC50 (H1047R PIK3CA enzyme) of at most 100 nM and an IC50 (cells) of 1000 to 5000 nM.

`O=C1CCc2c(cccc2-c2cc(NC(=O)c3cc(F)cc(C(F)(F)F)c3)c3c(c2)C(=O)NC3c2cc(F)ccc2Cl)N1` (stereo not drawn) [Compound I-1028] gave an IC50 (H1047R PIK3CA enzyme) of at most 100 nM and an IC50 (cells) of under 1000 nM.

Work on `O=C1N[C@@H](c2cc(F)ccc2Cl)c2c(NC(=O)N3C[C@@H](O)c4ccccc43)cc(Br)cc21` (single isomer, unassigned) [Compound I-1514] yielded an IC50 (H1047R PIK3CA enzyme) of at most 100 nM and an IC50 (cells) of 1000 to 5000 nM.

Work on `O=C(Nc1cc(-c2ccc3ncnn3c2)cc2c1[C@@H](c1cc(Cl)ccc1Cl)NC2=O)c1cc(F)cc(C(F)(F)F)c1` [Compound I-1054] yielded an IC50 (H1047R PIK3CA enzyme) of at most 100 nM and an IC50 (cells) of under 1000 nM.
